From US11649255B2, “Indazoles as hematopoietic progenitor kinase 1 (HPK1) inhibitors and methods using same” (1st Biotherapeutics, Inc., priority 2020, dated 2023)
Like-named read-outs stand apart in the source and are kept apart here.

Experiments:
[1] = system: human peripheral blood pan T cells; test: IFNγ and IL-2 analysis of human peripheral pan T cells; assay type: cell-based; details: T-cell, CD3/CD28 bead stimulation, 100 nM Prostaglandin E2, 24 hr
Procedure, shortened: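 Human peripheral blood pan T cells (8×10^4) were preincubated 1 h with compounds plus 100 nM PGE2. They were then activated with anti-CD3/CD28 Dynabeads at a 1:3 cell:bead ratio. IFNγ and IL-2 were measured on a Meso Scale Discovery platform.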

recombinant human HPK1 = recombinant human HPK1 (Homo sapiens (Human), UniProt Q92918); test: HPK1 kinase assay (ADP-Glo); assay type: biochemical; details: 25 μM ATP, MBP substrate
Procedure, shortened: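 Activity was read as ADP formed, detected by ADP-Glo luminescence after the reaction of 5 ng recombinant human HPK1 with MBP and ATP (stocks 0.5 μg/μl and 25 μM) for 40 min at 30 °C. Buffer was Tris pH 7.5 with MgCl2, BSA and DTT, with compound in 0.5% DMSO. IC50 came from inhibition curves.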

[2] = IFNγ secretion, read-out: IFNγ (EC50)
[3] = IL-2 secretion, read-out: IL-2 (EC50)

Sequence of recombinant human HPK1 (Q92918 whole entry): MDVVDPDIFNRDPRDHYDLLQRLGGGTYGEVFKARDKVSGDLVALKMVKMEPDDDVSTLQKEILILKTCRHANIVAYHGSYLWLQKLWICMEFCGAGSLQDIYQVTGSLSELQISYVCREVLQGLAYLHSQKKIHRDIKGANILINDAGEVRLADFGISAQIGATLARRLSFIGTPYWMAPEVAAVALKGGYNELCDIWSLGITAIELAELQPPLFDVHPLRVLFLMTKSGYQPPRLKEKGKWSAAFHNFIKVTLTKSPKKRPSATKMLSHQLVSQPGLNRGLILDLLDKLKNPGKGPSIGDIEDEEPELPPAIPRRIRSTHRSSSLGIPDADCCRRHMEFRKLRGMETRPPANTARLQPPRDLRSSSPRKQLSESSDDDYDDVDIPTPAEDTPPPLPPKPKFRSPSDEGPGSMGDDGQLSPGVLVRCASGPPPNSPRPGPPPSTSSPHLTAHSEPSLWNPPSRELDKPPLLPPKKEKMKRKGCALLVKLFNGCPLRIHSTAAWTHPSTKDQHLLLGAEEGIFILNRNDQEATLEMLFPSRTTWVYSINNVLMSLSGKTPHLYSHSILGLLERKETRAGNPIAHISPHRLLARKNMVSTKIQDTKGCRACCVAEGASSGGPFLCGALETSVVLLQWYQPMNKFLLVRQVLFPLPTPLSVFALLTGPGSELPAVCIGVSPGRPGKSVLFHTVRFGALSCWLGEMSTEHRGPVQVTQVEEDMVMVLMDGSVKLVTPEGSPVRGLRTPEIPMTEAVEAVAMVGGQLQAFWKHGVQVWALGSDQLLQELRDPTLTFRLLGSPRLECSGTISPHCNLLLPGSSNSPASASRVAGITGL

| EC50 [1, 2] [nM] | IC50 (recombinant human HPK1) [nM] | EC50 [1, 3] [nM] | Structure (SMILES) |
| --- | --- | --- | --- |
| < 200 | < 100 |  | CCc1c(F)c(SC)c2[nH]ncc2c1-c1ccc2nc(NC(=O)[C@@H]3C[C@@H]3F)cn2c1 [Example 293, (1S,2S)-N-(6-(5-ethyl-6-fluoro-7-(methylthio)-1H-indazol-4-yl)imidazo[1,2-a]pyridin-2-yl)-2-fluorocyclopropane-1-carboxamide] |
| < 200 | < 100 |  | Cc1c(F)c(SCCO)c2[nH]ncc2c1-c1ccn2nc(NC(=O)[C@@H]3C[C@@H]3F)cc2c1 [Example 523, (1S,2S)-2-fluoro-N-(5-(6-fluoro-7-((2-hydroxyethyl)thio)-5-methyl-1H-indazol-4-yl)pyrazolo[1,5-a]pyridin-2-yl)cyclopropane-1-carboxamide] |
| 200 to 1000 | < 100 | > 1000 | CSc1c(F)cc2[nH]ncc2c1-c1ccc2nc(NC(=O)[C@@H]3C[C@@H]3F)sc2c1 [Example 105, (1S,2S)-2-fluoro-N-(6-(6-fluoro-5-(methylthio)-1H-indazol-4-yl)benzo[d]thiazol-2-yl)cyclopropane-1-carboxamide] |
| 200 to 1000 | < 100 |  | CSc1c(F)c(Cl)c(-c2ccc3nc(NC(=O)[C@@H]4C[C@@H]4F)sc3n2)c2cn[nH]c12 [Example 174, (1S,2S)-N-(5-(5-chloro-6-fluoro-7-(methylthio)-1H-indazol-4-yl)thiazolo[5,4-b]pyridin-2-yl)-2-fluorocyclopropane-1-carboxamide] |
| 200 to 1000 | < 100 |  | CN(C)C(=O)c1c(F)c(Cl)c(-c2ccc3nc(NC(=O)[C@@H]4C[C@@H]4F)cn3c2)c2cn[nH]c12 [Example 320, 5-chloro-6-fluoro-4-(2-((1S,2S)-2-fluorocyclopropane-1-carboxamido)imidazo[1,2-a]pyridin-6-yl)-N,N-dimethyl-1H-indazole-7-carboxamide] |
| 200 to 1000 | < 100 | 200 to 1000 | CCN(C)c1c(F)c(C)c(-c2ccn3nc(NC(=O)[C@@H]4C[C@@H]4F)cc3c2)c2cn[nH]c12 [Example 563, (1S,2S)-N-(5-(7-(ethyl(methyl)amino)-6-fluoro-5-methyl-1H-indazol-4-yl)pyrazolo[1,5-a]pyridin-2-yl)-2-fluorocyclopropane-1-carboxamide] |
| < 200 | < 100 |  | CCOc1c(F)c(SC)c(-c2ccc3nc(NC(=O)[C@@H]4C[C@@H]4F)sc3c2)c2cn[nH]c12 [Example 118, (1S,2S)-N-(6-(7-ethoxy-6-fluoro-5-(methylthio)-1H-indazol-4-yl)benzo[d]thiazol-2-yl)-2-fluorocyclopropane-1-carboxamide] |
